# Test results from patent US20250332173A1, “COMPOUNDS AND METHODS FOR MODULATING NUCLEIC ACID SPLICING” (REMIX THERAPEUTICS INC., priority 2021, published 2025).
# Like-named read-outs stand apart in the source and are kept apart here.
# What was measured:
# Type in all cases: cell-based, human
# MYB = assay: HiBiT protein abundance assay, MYB HiBiT K562 cell line; conditions: 24 hours, top dose 10 μM
# How it was run: (§1)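 Tagged-protein abundance measured by split-NanoBiT luminescence after lysis, following 24 h compound exposure (37° C; 10 μM top, 3-fold, 10 points; DMSO ≤0.25%) of HiBiT knock-in K562 cells. Percent response vs DMSO and unmodified-cell controls; 4-parameter logistic interpolation at 50% gave IC50.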
# HTT = assay: HiBiT protein abundance assay, HTT HiBiT K562 cell line; conditions: 24 hours, top dose 10 μM
# How it was run: as §1
# HTT mRNA = assay: RT-qPCR splicing assay, HTT canonical junction (CJ) and alternative junction (AJ) mRNA; conditions: Homo sapiens; for AC50: increase in HTT alternative junction (AJ) mRNA, read-out: HTT AJ AC50
# How it was run: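 Read-out is one-step RT-qPCR on cell lysates detecting the exon-exon junction of each isoform, normalized to a housekeeping gene (PPIA in A673, GAPDH or GUSB in K562).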
# [1] = HiBiT lytic detection, modified K562 cells, read-out: Effect on protein abundance, MYB (IC50)
# [2] = HiBiT lytic detection, modified K562 cells, read-out: Effect on protein abundance, HTT (IC50)
# [3] = decrease in HTT canonical junction (CJ) mRNA, RT-qPCR, read-out: HTT CJ IC50
# [4] = canonical junction qPCR panel, Table 5, read-out: HTT (decrease in CJ mRNA levels, IC50)
IC50 (MYB; [1]),IC50 (HTT; [2]),IC50 (HTT mRNA; [3]),IC50 (HTT mRNA; [4]),"IC50 (MYB; HiBiT K562 cell line, read-out: Effect on protein abundance, MYB (IC50 category))","IC50 (HTT; HiBiT K562 cell line, read-out: Effect on protein abundance, HTT (IC50 category))",Compound,AC50 (HTT mRNA; RT-qPCR)
100 to 1000 nM,100 to 1000 nM,100 to 1000 nM,100 to 1000 nM,–,–,Cc1cn2nc(-c3ccc4c(=O)n([C@@H]5CCN(C)[C@H](C)C5)ncc4n3)cc(C)c2n1 [Compound 1527],100 to 1000 nM
100 to 1000 nM,100 to 1000 nM,100 to 1000 nM,100 to 1000 nM,–,–,"Cc1cn2nc(-c3ccc4c(=O)n([C@H]5CCN(C)[C@@H](C)C5)ncc4n3)cc(C)c2n1 [Compound 1528, 2-(2,8-dimethylimidazo[1,2-b]pyridazin-6-yl)-6-(1,2-dimethyl-4-piperidyl)pyrido[2,3-d]pyridazin-5-one]",100 to 1000 nM
< 100 nM,< 100 nM,< 100 nM,< 100 nM,–,–,CCN1CC[C@@H](n2ncc3nc(-c4cc(C)c5nc(C)cn5n4)ccc3c2=O)CC12CC2 [Compound 1530],< 100 nM
100 to 1000 nM,100 to 1000 nM,100 to 1000 nM,< 100 nM,–,–,CCN1CC[C@H](n2ncc3nc(-c4cc(C)c5nc(C)cn5n4)ccc3c2=O)CC12CC2 [Compound 1531],< 100 nM
100 to 1000 nM,100 to 1000 nM,100 to 1000 nM,< 100 nM,–,–,Cc1cn2nc(-c3ccc4c(=O)n([C@H]5CCN(C)C6(CC6)C5)ncc4n3)cc(C)c2n1 [Compound 1533],< 100 nM
100 to 1000 nM,< 100 nM,< 100 nM,< 100 nM,–,–,Cc1cn2nc(-c3ccc4c(=O)n([C@@H]5CCN(C)C6(CC6)C5)ncc4n3)cc(C)c2n1 [Compound 1534],< 100 nM
–,–,100 to 1000 nM,< 100 nM,100 to 1000 nM,< 100 nM,"Cc1cn2nc(-c3ccc4c(=O)n(C5CCN(CCO)C6(CC6)C5)ncc4n3)cc(C)c2n1 (stereo not shown) [Compound 1541, 2-(2,8-dimethylimidazo[1,2-b]pyridazin-6-yl)-6-[4-(2-hydroxyethyl)-4-azaspiro[2.5]octan-7-yl]pyrido-[2,3-d]pyridazin-5-one]",< 100 nM
1000 to 10000 nM,100 to 1000 nM,100 to 1000 nM,100 to 1000 nM,–,–,"Cc1cn2nc(-c3ccc4c(=O)n(C5CCN(CCF)C6(CC6)C5)ncc4n3)cc(C)c2n1 (stereo not shown) [Compound 1542, 2-(2,8-dimethylimidazo[1,2-b]pyridazin-6-yl)-6-[4-(2-fluoroethyl)-4-azaspiro[2.5]octan-7-1]pyrido[2,3-d]pyridazin-5-one]",100 to 1000 nM
100 to 1000 nM,< 100 nM,< 100 nM,< 100 nM,–,–,"Cc1cn2nc(-c3ccc4c(=O)n(C5CCN(CC6CC6)C6(CC6)C5)ncc4n3)cc(C)c2n1 (stereo not shown) [Compound 1543, 6-[4-(cyclopropylmethyl)-4-azaspiro[2.5]octan-7-yl]-2-(2,8-dimethylimidazo[1,2-b]pyridazin-6-yl)pyrido[2,3-d]pyridazin-5-one]",< 100 nM
100 to 1000 nM,< 100 nM,< 100 nM,< 100 nM,–,–,"Cc1cn2nc(-c3ccc4c(=O)n([C@@H]5CCNC6(CCC6)C5)ncc4n3)cc(C)c2n1 [Compound 1545, 6-[(8R)-5-azaspiro[3.5]nonan-8-yl]-2-(2,8-dimethylimidazo[1,2-b]pyridazin-6-yl)pyrido[2,3-d]pyridazin-5-one]",< 100 nM
1000 to 10000 nM,100 to 1000 nM,1000 to 10000 nM,100 to 1000 nM,–,–,Cc1cn2nc(-c3ccc4c(=O)n(C5CCNC6(CCC6)C5)ncc4n3)cc(C)c2n1 (stereo not shown) [Compound 1553],100 to 1000 nM
> 10000 nM,> 10000 nM,> 10000 nM,> 10000 nM,–,–,Cn1cc2ccc(-n3cnc4ccc(NC5CCNCC5)cc4c3=O)cc2n1 [Compound 2164],> 10000 nM
> 10000 nM,> 10000 nM,> 10000 nM,> 10000 nM,–,–,Cc1cc(-c2ccc3ncn(C4CCNCC4)c(=O)c3c2)cc2cn(C)nc12 [Compound 2169],> 10000 nM
> 10000 nM,> 10000 nM,> 10000 nM,> 10000 nM,–,–,Cc1cc(-c2ccc3ncn(C4CCN(C)CC4)c(=O)c3c2)cc2cn(C)nc12 [Compound 2170],> 10000 nM
> 10000 nM,> 10000 nM,> 10000 nM,> 10000 nM,–,–,CN1CCC(Nc2ccc3ncn(-c4ccc5nn(C)cc5c4)c(=O)c3c2)CC1 [Compound 2171],> 10000 nM
> 10000 nM,> 10000 nM,> 10000 nM,> 10000 nM,–,–,Cc1cn2cc(-n3cnc4ccc(N5CCNCC5)cc4c3=O)cc(F)c2n1 [Compound 2195],> 10000 nM
> 10000 nM,> 10000 nM,> 10000 nM,> 10000 nM,–,–,Cn1cc2cc(-n3cnc4ccc(N5CCNCC5)cc4c3=O)cc(F)c2n1 [Compound 2196],> 10000 nM
1000 to 10000 nM,1000 to 10000 nM,1000 to 10000 nM,1000 to 10000 nM,–,–,Cc1cn2cc(-n3cnc4ccc(N5CCN(C)CC5)cc4c3=O)cc(F)c2n1 [Compound 2197],1000 to 10000 nM
> 10000 nM,> 10000 nM,> 10000 nM,> 10000 nM,–,–,Cc1cn2nc(-n3cnc4ccc(N5CCNCC5)cc4c3=O)cc(C)c2n1 [Compound 2201],> 10000 nM
1000 to 10000 nM,1000 to 10000 nM,1000 to 10000 nM,1000 to 10000 nM,–,–,Cc1cn2nc(-n3cnc4ccc(N5CCN(C)CC5)cc4c3=O)cc(C)c2n1 [Compound 2202],1000 to 10000 nM
> 10000 nM,> 10000 nM,> 10000 nM,> 10000 nM,–,–,Cc1cc(-c2ccc3c(=O)[nH]c(N4CCNCC4)nc3c2)cc2cn(C)nc12 [Compound 2211],> 10000 nM
> 10000 nM,> 10000 nM,1000 to 10000 nM,1000 to 10000 nM,–,–,Cc1cc(-c2ccc3c(=O)[nH]c(N4CCN(C)CC4)nc3c2)cc2cn(C)nc12 [Compound 2212],1000 to 10000 nM
> 10000 nM,> 10000 nM,> 10000 nM,> 10000 nM,–,–,Cc1cc(-c2nc3cc(N4CCNCC4)ccc3c(=O)[nH]2)cc2cn(C)nc12 [Compound 2213],> 10000 nM

Compound,IC50 (MYB; [1]),IC50 (HTT; [2]),IC50 (HTT mRNA; [3]),IC50 (HTT mRNA; [4]),"IC50 (MYB; HiBiT K562 cell line, read-out: Effect on protein abundance, MYB (IC50 category))","IC50 (HTT; HiBiT K562 cell line, read-out: Effect on protein abundance, HTT (IC50 category))",AC50 (HTT mRNA; RT-qPCR)
CN(c1ccc2ncn(-c3cc(F)c4nn(C)cc4c3)c(=O)c2c1)C1CCNCC1 [Compound 2198],> 10000 nM,> 10000 nM,> 10000 nM,> 10000 nM,–,–,> 10000 nM
CN1CCC(N(C)c2ccc3ncn(-c4cc(F)c5nn(C)cc5c4)c(=O)c3c2)CC1 [Compound 2199],> 10000 nM,> 10000 nM,> 10000 nM,> 10000 nM,–,–,> 10000 nM
Cc1cn2cc(-n3cnc4ccc(N(C)C5CCNCC5)cc4c3=O)cc(F)c2n1 [Compound 2200],> 10000 nM,> 10000 nM,> 10000 nM,> 10000 nM,–,–,> 10000 nM
